Measurements taken from patent publication US5126258A (priority 1988, dated 1992).

What was measured:
22F5 = assay: Hydrolysis of reactant ligands by receptor 22F5; format: biochemical, mouse; conditions: pH 8.0; receptor/ligand uM, time h: 17 1/10, 2; 18 2/10, 24; 20 2/10, 0.33; 5 1/5, 0.33; 22 5/10, 3.5; preliminary
Description: (§1) ^1 Preliminary initial hydrolyses shown as the percentage of admixed
(§2) reactant ligand consumed for catalyzed and spontaneous hydrolyses. "--" =
(§3) No hydrolysis observed. "NT" = Not tried. All reactions were carried out
(§4) at pH 8.0 in a 50 mM phosphate buffer unless otherwise noted. Hydrolytic
(§5) percentages were determined by HPLC using a Hitachi model 655A12 liquid
(§6) chromatograph with a C18 Vydac 201TP54 column, except as noted below.
(§7) Mixtures of acetonitrile a nd water containing 0.1 percent trichloroaceti
(§8) acid [28:72-50:50 (v/v)] were used as elutant. Hydrolyses of Compounds 5
(§9) and 20 were assayed using fluorescence data.
(§10) ^2 Concentrations of receptor molecules (Rec.) and reactant ligands
(§11) (Lig.) in micromolar units, presuming a molecular weight of 150,000
(§12) daltons for each receptor molecule.
(§13) ^3 Reactant ligand (Lig.) used as substrate.
(§14) ^4 Time in hours that the reaction was permitted to take place.
(§15) ^5 Spontaneous hydrolytic percentages for the time period indicated.
(§16) ^6 Reaction carried out at pH 7.2 in a 50 mM phosphate buffer.

21G2 = assay: Hydrolysis of reactant ligands by receptor 21G2; format: biochemical, mouse; conditions: pH 8.0; receptor/ligand uM, time h: 17 1/10, 2; 18 2/10, 24; 20 2/10, 0.33; 5 1/5, 0.33; 22 5/10, 3.5; preliminary
Description: as §1, §2, §3, §4, §5, §6, §7, §8, §9, §10, §11, §12, §13, §14, §15, §16

17G8 = assay: Hydrolysis of reactant ligands by receptor 17G8; format: biochemical, mouse; conditions: pH 8.0; receptor/ligand uM, time h: 18 2/10, 24; 20 2/10, 0.33; 5 1/5, 0.33; 22 5/10, 3.5; preliminary
Description: as §1, §2, §3, §4, §5, §6, §7, §8, §9, §10, §11, §12, §13, §14, §15, §16

7E5 = assay: Hydrolysis of reactant ligands by receptor 7E5; format: biochemical, mouse; conditions: pH 8.0; receptor/ligand uM, time h: 17 1/10, 2; 18 2/10, 24; 20 2/10, 0.33; 5 1/5, 0.33; 22 5/10, 3.5; preliminary
Description: as §1, §2, §3, §4, §5, §6, §7, §8, §9, §10, §11, §12, §13, §14, §15, §16

37G2 = assay: Hydrolysis of reactant ligands by receptor 37G2; format: biochemical, mouse; conditions: pH 8.0; receptor/ligand uM, time h: 17 1/10, 2; 18 2/10, 24; 20 2/10, 0.33; 5 1/5, 0.33; 22 5/10, 3.5; preliminary
Description: as §1, §2, §3, §4, §5, §6, §7, §8, §9, §10, §11, §12, §13, §14, §15, §16

[1] = Spontaneous (uncatalyzed, background) hydrolysis; format: physicochemical; conditions: pH 8.0, 50 mM phosphate; time (h): 17 2; 18 24; 20 0.33; 5 0.33; 22 3.5
Description: The practical range of pH for the assay is limited by the rapid spontaneous rate of hydrolysis of an ester Compound 5 above pH 8.0. Initially, the ester was used at a concentration that was about four-fold greater than that of the protein, and the mixture was incubated at pH 7.2 for 10 minutes. Any change in fluorescence above background was noted.
The lack of spectroscopic distinction between such esters and their hydrolysis products recommended a chromatographic analysis of the process. Referring to FIG. 3, a mixture of Compound 7 (5 uM) and the monoclonal antibody from hybridoma P3 6D4 (0.1 uM) in phosphate buffer (50 mM, pH 8.0) was analyzed over time by high performance liquid chromatography (HPLC). The accelerated hydrolysis of the ester was apparent from the decrease of its peak and the concurrent increase in two new peaks that correspond with the expected products. Under these conditions, the ester is completely consumed in 60-80 minutes during which time the background rate accounts for about 12 to 16 percent hydrolysis. The chromatographic profile is the same as that produced by treatment with hog liver esterase.
^c The rate constants were determined spectrophotometrically (at 245
nm) by measuring initial rates at five concentrations of ester.
as §1, §2, §3, §4, §5, §6, §7, §8, §9, §15
Reaction kinetics were studied using three reactant ligands as substrates for monoclonal receptors 37G2 and 22F5. Data from initial rates were consistent with Michaelis-Menten reaction mechanism for a usual enzyme-substrate system. Initial rates were followed using at 271 nm using a U.V.-visible spectorphotometer for Compound 17, and a fluorescence spectrometer for Compounds 5 and 20, using an excitation wavelength of 355 nm and an emission wavelength of 455 nm for both compounds.

13E10 = assay: Hydrolysis of reactant ligands by receptor 13E10; format: biochemical, mouse; conditions: pH 8.0; receptor/ligand uM, time h: 17 1/10, 2; 18 2/10, 24; 20 2/10, 0.33; 5 1/5, 0.33; 22 5/10, 3.5; preliminary
Description: as §1, §2, §3, §4, §5, §6, §7, §8, §9, §10, §11, §12, §13, §14, §15, §16

1209 = assay: Hydrolysis of reactant ligands by receptor 12C9 (column head prints 1209); format: biochemical, mouse; conditions: pH 8.0; receptor/ligand uM, time h: 17 1/10, 2; 18 2/10, 24; 20 2/10, 0.33; 5 1/5, 0.33; 22 5/10, 3.5; preliminary
Description: as §1, §2, §3, §4, §5, §6, §7, §8, §9, §10, §11, §12, §13, §14, §15, §16

44A2 = assay: Hydrolysis of reactant ligands by receptor 44A2; format: biochemical, mouse; conditions: pH 8.0; receptor/ligand uM, time h: 17 1/10, 2; 18 2/10, 24; 20 2/10, 0.33; 5 1/5, 0.33; 22 5/10, 3.5; preliminary
Description: as §1, §2, §3, §4, §5, §6, §7, §8, §9, §10, §11, §12, §13, §14, §15, §16

[2] = system: monoclonal receptor P3 6D4; assay: Stoichiometric transacylation reaction of monoclonal receptor P3 6D4 with coumarin ester Compound 5 (fluorescence) and its inhibition/inactivation; format: biochemical, mouse; conditions: up to 100 micromolar added zinc and picolinic acid; EDTA concentration not given
Description: A Perkin-Elmer LS-5 fluorescence spectrometer was operated at a fixed wavelength, using 355 nanometers (nm) for excitation and measuring the emission at 455 nm. A stock solution of the coumarin ester 5 was prepared in dioxane and was diluted to the desired concentrations in Tris-HCl (50 mM, pH 7) or sodium phosphate (50 mM, pH 4-9).
Reactions were run at 23 degrees C and were initiated by the addition of an aliquot of antibody solution (1 mg/ml) to substrate solutions to provide a final protein concentration of 100 nM. Final fluorescence values were determined by hydrolysis of the substrate with pig liver esterase. The observed reaction rate was corrected for spontaneous hydrolysis. Reaction kinetics were studied by measuring initial rates under pseudo-first order conditions. Active protein concentration was extrapolated from fluorescence values at the end of the reaction. The kinetic parameters were obtained by fitting the data to a hyperbolic curve and from double reciprocal plots. Inhibition constants were determined from the Lineweaver-Burk plot data with at least five inhibitor concentrations. All the data were studied by a least squares analysis.
Antibody preparations were inactivated without introducing fluorescent products by the addition of the activated ester (Compound 8) in dioxane to a solution of the IgG (5 mg/ml) in Tris-HCl (50 mM, pH 6.5) at a ratio of 5 moles of the ester (Compound 8) per mole IgG.
Protein modification was performed in an analogous manner, by the addition of a dioxane solution of the reagent at a known concentration to the antibody. The solution was incubated for 30 minutes before filtration through Sephadex G-25. The activity remaining was compared to control samples. Aliquots of IgG (5 mg/ml) inactivated with the ester (Compound 8) were diluted with four volumes of phosphate buffer (50 mM, pH 4-9, at intervals of 1 pH unit). Any pH change was recorded, and the sample was stored at 4 degrees C for 24 hours.
Initially, the ester was used at a concentration that was about four-fold greater than that of the protein, and the mixture was incubated at pH 7.2 for 10 minutes. Any change in fluorescence above background was noted.
The termination of the reaction is noted by the return of the rate of fluorescence increase to the background level.

[3] = system: monoclonal antibody P3 6D4; assay: Kinetics and inhibition of catalytic ester hydrolysis by monoclonal antibody P3 6D4, spectrophotometric at 245 nm; format: biochemical, mouse; conditions: picolinic acid alone or picolinic acid and zinc chloride
Description: FIG. 4 illustrates a Lineweaver-Burk plot for the hydrolysis of Compound 7 by anti-Compound 4 monoclonal antibody from hybridoma P3 6D4. Velocities were determined spectrophotometrically by measuring initial rates during the first linear portion of the reaction as described with reference to Table 2. The substrate concentrations were corrected for amounts consumed during initial equilibration. ( ) No inhibitor present. ( ) Inhibited by 50 nM phosphonate (Compound 3). ( ) Inhibited by 100 nM phosphonate (Compound 3).
In particular, an exemplary monoclonal receptor was produced by the standard hybridoma technology of Kohler et al., Nature, 256, 495 (1975). Specifically, female 129G1X^+ mice were immunized by intraperitoneal injection with an inoculum of 100 micrograms of conjugate (e.g., Compound 4i bound to KLH) in 300 microliters of a 1:1 mixture of phosphate buffered saline (PBS) pH 7.4 and complete Freund's adjuvant. Two weeks later, the mice were again injected in a like manner with 50 micrograms of the foregoing conjugate in 300 microliters of a 1:1 mixture of PBS (pH 7.4) and 10 mg/ml alum. After an additional eight weeks, the mice were immunized intravenously with 50 micrograms of the conjugate in 200 microliters of PBS (pH 7.4). The spleens were removed from the mice 4 days later, and the spleen cells were fused to myeloma cells.
Reaction kinetics were measured spectrophotometrically by following the absorption change at 245 nanometers. […] Kinetic parameters obtained with these substrates are shown in Table 2 along with the inhibition constants obtained with phosphonate (Compound 3). Under these conditions, the acceleration above the background rate is about 960-fold for Compound 7 and about 200-fold for Compound 8 (corrected for the background hydrolysis rate).
*The kinetic parameters shown in Table 2 are for the hydrolysis of esters
(Compounds 7 and 8) by monoclonal antibody P3 6D4. A PerkinElmer lambda 4
spectrophotometer, equipped with thermostatted cell holder, was used to
measure absorption changes at 245 nm. Cells containing the substrate at
concentrations of 0.5 to 50 micromolar in phosphate buffer (50 mM, pH 8.0
were preequilibrated at 25 degrees C. The concentration of active IgG in
stock solution was found by reacting with the coumarin ester (Compound 5)
and measuring the yield of hydroxycoumarin by fluorescence. The kinetic
run was initiated by addition of an aliquot of the antibody stock solutio
(in 50 mM phosphate buffer, pH 8.0) calculated to give 100 nM IgG. The
mixture was allowed to equilibrate for 2 to 3 minutes and the rate was
then measured during the subsequent 10 minutes. The absorption change for
complete hydrolysis was determined by treatment with esterase. Kinetic
parameters were obtained from L ineweaverBurk plots (see FIG. 4).
Inhibition constants were determined from a plot of the slopes with at
least four inhibitor concentrations of Compound 3. The data were analyzed

Row | Compound | hydrolysis by 22F5 (22F5) | hydrolysis by 21G2 (21G2) | hydrolysis by 17G8 (17G8) | hydrolysis by 7E5 (7E5) | hydrolysis by 37G2 (37G2) | Spon. (spontaneous hydrolysis) [1] | hydrolysis by 13E10 (13E10) | hydrolysis by 1209 1209 | hydrolysis by 44A2 (44A2) | effect of additive on antibody-enhanced esterolysis of Compound 5 [2] | effect of additive on rate of reaction of Compound 7 with antibody [3]
1 | CC(=O)Nc1ccc(CC(=O)Oc2ccccc2)cc1 [Compound 22] | 26 percentage of reactant ligand | 19 percentage of reactant ligand | 22 percentage of reactant ligand | 9 percentage of reactant ligand | 45 percentage of reactant ligand | 5 percentage of reactant ligand | 14 percentage of reactant ligand | 12 percentage of reactant ligand | 24 percentage of reactant ligand |  | 
2 | O=C(O)c1ccccn1 [picolinic acid, reference compound] |  |  |  |  |  |  |  |  |  | No effect | no effect
